Assays:
Assay type in all cases: biochemical
[1] = target: TYK2 (Homo sapiens, UniProt P29597); assay: JAK kinase activity, homogeneous time-resolved fluorescence (TYK2 reaction system); conditions: ATP 2 μM, TYK2 protein 0.2 ng/μL; read-out: TYK 2 activity
Procedure: (§1) The activity measurement method of JAK kinase was to use homogeneous time-resolved fluorescence technique. The reaction was performed in 384 shallow well plates with a total reaction volume of 10 μL. The mixture of kinase protein, compound, ATP and substrate was carried out in a reaction buffer of 50 mM Hepes (pH7.0), NaN3 0.02%, BSA 0.01%, 0.1 mM Orthocanadate, 5 mM MgCl2, and 1 mM DTT. After reacting for 1 hour, an antibody capable of recognizing substrate phosphorylation, dye XL-615 and detection buffer (Cisbio) containing EDTA were added to the system. The reaction signal of kinase was detected by PE company's porous plate detector. The parameter settings were excitation light at 320 nm, emission light at 615 nm and 665 nm. The activity of JAK is indirectly reflected by the signal ratio of 665 nm and 615 nm. In the reaction, the background well without enzyme and the total enzyme activity well without compound were set.
(§2) The IC50 value of the compound inhibiting protein was obtained by the formula: Y=100/(1+10^((Log IC50−X)*HillSlope)). In JAK1 reaction system, the concentration of ATP was 2 μM, and the concentration of JAK1 protein was 0.2 ng/μL.
In TYK2 reaction system, the concentration of ATP was 2 μM, and the concentration of TYK2 protein was 0.2 ng/μL.

[2] = target: T1, JAK3 (Homo sapiens, UniProt P52333); assay: JAK kinase activity, homogeneous time-resolved fluorescence (JAK3 reaction system); conditions: ATP 2 μM, JAK3 protein 0.04 ng/μL; read-out: JAK 3 activity
T1 sequence (P52333 1-1124): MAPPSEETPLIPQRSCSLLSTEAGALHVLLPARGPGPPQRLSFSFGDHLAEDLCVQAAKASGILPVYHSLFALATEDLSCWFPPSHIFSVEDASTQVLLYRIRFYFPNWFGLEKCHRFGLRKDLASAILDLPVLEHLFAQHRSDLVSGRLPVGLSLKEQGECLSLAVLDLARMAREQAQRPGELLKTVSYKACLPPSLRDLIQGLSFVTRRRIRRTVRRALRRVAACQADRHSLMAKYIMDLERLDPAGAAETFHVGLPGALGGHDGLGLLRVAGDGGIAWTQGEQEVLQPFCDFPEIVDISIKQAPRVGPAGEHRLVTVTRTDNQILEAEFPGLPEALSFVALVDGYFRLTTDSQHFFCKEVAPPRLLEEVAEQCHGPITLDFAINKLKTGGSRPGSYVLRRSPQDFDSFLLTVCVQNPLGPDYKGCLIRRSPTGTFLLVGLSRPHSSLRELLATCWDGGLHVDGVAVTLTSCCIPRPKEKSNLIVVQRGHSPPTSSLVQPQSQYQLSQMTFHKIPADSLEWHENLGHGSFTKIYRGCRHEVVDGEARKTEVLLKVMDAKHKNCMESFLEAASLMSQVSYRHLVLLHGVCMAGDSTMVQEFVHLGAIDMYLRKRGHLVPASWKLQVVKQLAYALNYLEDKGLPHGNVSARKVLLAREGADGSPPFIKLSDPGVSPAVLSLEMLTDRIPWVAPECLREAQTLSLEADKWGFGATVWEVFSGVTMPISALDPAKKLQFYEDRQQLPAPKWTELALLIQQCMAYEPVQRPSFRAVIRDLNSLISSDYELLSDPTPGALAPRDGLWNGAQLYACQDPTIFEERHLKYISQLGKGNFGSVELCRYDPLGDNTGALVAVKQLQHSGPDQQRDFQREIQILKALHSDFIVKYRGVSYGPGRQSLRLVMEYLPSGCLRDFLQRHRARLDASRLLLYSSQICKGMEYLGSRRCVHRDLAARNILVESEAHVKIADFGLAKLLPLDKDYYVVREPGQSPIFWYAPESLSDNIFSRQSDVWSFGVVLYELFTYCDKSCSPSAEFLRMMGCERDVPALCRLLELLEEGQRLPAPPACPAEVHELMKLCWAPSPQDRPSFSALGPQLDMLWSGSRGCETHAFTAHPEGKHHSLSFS
Procedure: as §1, with “The reaction was performed in 384 shallow well plates with a total reaction volume of 10 μL.” left out, “After reacting for 1 hour, an antibody capable of recognizing substrate phosphorylation, dye XL-615 and detection buffer (Cisbio) containing EDTA were added to the system.” left out, “set. […]” for “set.”
In JAK3 reaction system, the concentration of ATP was 2 μM, and the concentration of JAK3 protein was 0.04 ng/μL.

[3] = target: JAK2 (Homo sapiens, UniProt O60674); assay: JAK kinase activity, homogeneous time-resolved fluorescence (JAK2 reaction system); conditions: ATP 2 μM, JAK2 protein 0.01 ng/μL
Procedure: as §1, §2
In JAK2 reaction system, the concentration of ATP was 2 μM, and the concentration of JAK2 protein was 0.01 ng/μL.

[4] = target: JAK1 (Homo sapiens, UniProt P23458); assay: JAK kinase activity, homogeneous time-resolved fluorescence (JAK1 reaction system); conditions: ATP 2 μM, JAK1 protein 0.2 ng/μL; read-out: JAK 1 activity
Procedure: as §1, §2

Chain of JAK2 (O60674 whole entry): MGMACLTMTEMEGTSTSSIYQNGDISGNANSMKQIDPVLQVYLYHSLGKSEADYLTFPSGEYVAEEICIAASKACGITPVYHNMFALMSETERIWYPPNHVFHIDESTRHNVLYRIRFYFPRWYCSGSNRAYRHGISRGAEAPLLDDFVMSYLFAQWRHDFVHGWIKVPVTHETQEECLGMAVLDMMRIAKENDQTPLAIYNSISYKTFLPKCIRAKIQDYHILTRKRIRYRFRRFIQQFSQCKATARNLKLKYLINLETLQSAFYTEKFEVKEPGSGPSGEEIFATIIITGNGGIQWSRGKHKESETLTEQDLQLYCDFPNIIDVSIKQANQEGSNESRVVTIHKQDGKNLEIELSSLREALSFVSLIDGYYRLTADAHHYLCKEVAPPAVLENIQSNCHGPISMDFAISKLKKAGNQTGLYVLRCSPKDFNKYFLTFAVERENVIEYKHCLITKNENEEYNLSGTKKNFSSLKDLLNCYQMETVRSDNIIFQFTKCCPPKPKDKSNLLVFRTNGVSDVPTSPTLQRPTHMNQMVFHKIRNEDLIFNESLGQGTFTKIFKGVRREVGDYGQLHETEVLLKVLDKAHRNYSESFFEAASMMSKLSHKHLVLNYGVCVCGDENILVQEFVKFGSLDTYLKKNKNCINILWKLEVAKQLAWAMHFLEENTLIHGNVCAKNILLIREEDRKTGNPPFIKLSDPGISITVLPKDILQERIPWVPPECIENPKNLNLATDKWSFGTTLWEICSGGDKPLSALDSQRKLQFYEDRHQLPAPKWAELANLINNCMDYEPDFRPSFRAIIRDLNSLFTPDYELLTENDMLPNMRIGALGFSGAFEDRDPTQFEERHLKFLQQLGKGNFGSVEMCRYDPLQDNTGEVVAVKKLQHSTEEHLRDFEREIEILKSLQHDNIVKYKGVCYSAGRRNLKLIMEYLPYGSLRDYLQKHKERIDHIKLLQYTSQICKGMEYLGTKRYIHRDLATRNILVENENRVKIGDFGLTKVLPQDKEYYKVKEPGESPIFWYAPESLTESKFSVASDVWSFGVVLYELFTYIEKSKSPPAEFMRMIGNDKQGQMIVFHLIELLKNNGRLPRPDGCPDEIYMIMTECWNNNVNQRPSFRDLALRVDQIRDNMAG
Chain of TYK2 (P29597 whole entry): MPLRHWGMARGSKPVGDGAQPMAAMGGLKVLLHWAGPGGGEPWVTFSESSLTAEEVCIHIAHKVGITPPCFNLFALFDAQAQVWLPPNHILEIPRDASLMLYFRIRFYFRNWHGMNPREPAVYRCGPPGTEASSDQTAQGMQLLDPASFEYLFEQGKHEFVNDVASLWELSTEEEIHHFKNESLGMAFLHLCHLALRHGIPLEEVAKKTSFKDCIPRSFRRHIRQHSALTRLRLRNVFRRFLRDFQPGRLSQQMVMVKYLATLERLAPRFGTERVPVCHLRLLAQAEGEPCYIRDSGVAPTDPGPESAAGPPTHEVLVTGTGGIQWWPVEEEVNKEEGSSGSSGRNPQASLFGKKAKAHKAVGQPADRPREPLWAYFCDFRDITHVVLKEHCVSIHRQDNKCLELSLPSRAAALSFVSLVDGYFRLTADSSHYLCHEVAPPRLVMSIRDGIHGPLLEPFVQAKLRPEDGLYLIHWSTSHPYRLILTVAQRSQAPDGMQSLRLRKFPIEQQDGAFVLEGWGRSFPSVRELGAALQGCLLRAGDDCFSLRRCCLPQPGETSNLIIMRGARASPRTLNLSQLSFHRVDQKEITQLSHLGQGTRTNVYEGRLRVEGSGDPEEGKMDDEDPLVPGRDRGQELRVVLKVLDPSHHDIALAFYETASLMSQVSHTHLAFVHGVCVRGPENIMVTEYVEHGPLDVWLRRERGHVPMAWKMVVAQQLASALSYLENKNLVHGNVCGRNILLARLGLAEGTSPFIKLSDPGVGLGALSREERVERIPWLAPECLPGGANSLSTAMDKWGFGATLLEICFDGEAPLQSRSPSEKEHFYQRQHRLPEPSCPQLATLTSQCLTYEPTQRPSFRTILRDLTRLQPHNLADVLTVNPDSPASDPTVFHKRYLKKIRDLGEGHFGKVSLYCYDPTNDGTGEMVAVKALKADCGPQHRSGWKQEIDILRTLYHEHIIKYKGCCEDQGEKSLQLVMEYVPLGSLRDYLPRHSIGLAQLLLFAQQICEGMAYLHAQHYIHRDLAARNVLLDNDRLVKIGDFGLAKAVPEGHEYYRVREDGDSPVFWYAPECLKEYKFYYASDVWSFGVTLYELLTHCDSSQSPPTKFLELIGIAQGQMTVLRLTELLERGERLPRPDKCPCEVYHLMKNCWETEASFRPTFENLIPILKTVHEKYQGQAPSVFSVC
Chain of JAK1 (P23458 whole entry): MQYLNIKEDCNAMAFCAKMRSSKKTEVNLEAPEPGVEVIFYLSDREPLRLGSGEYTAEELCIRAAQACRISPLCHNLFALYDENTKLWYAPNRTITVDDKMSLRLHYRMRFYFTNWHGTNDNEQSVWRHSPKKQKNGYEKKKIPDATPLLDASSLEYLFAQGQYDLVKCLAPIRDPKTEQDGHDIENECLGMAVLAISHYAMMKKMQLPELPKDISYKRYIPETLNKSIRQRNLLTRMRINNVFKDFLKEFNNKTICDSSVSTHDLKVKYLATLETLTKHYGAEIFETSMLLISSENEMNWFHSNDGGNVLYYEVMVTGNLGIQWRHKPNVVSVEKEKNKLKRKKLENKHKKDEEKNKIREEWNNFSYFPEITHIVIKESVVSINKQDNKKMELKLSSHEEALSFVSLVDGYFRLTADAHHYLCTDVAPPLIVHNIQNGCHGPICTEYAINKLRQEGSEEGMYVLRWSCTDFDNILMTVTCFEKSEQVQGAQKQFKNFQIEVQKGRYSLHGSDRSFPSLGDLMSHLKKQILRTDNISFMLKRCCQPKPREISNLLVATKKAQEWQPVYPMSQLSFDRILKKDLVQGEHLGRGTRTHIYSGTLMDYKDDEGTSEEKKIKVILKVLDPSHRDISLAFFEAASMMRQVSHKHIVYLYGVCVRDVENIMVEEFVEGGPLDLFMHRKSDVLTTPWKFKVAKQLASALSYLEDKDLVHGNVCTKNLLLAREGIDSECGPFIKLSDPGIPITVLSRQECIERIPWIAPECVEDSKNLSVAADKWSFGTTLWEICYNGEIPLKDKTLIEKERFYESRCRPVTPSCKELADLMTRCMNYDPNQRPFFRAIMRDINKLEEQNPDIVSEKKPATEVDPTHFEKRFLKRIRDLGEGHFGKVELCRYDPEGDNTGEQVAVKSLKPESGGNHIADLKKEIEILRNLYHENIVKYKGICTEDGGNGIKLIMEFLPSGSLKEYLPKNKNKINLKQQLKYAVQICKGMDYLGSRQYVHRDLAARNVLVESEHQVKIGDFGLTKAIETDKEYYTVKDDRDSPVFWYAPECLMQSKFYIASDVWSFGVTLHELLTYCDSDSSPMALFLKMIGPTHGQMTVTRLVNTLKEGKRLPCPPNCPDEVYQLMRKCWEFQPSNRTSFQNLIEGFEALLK

Row | SMILES | IC50 [1] [nM] | IC50 [2] [nM] | IC50 [3] [nM] | IC50 [4] [nM]
1 | COc1cc(F)ccc1COc1ccc2cc1COCCCCNC(=O)c1ccc(c(N)c1)-c1ccnc(n1)N2 [Example 173, 1^2-amino-4^4-((4-fluoro-2-methoxy-benzyl)oxy)-6-oxa-3,11-diaza-2(4,2)-pyrimidina-1(1,4),4(1,3)-di-benzenacyclododecaphan-12-one] | 1000 to 10000 | 11 to 100 | 101 to 1000 | 1000 to 10000
2 | O=C1Nc2ccc(cc2)OCc2cc(ccc2Oc2cccnc2)Nc2nccc(n2)-c2ccc1cc2[N+](=O)[O-] [Example 204, 1-nitro-4^4-(pyridin-3-oxy)-6-oxa-3,8-diaza-2(4,2)-pyrimidina-1,7(1,4),4(1,3)-tribenzenacyclononaphen-9-one] | > 10000 | 1000 to 10000 | > 10000 | 1000 to 10000
3 | O=C1NCCCCOCc2cc(ccc2N2CCSCC2)Nc2nccc(n2)-c2ccc1cc2[N+](=O)[O-] [Example 65, 1^2-nitro-4^4-thiomorpholin-6-oxa-3,11-diaza-2(4,2)-pyrimidina-1(1,4),4(1,3)-dibenzenacyclododecaphan-12-one] | 1000 to 10000 | 1000 to 10000 | 1000 to 10000 | 1000 to 10000
4 | O=C1NCCCCCc2cc(ccc2N2CCOCC2)Nc2nccc(n2)-c2ccc1cc2 [Example 32, 4^4-morpholin-3,11-diaza-2(4,2)-pyri-midina-1(1,4),4(1,3)-dibenzenacyclo-dodecaphan-11-one] | 101 to 1000 | 11 to 100 | < 10 | 101 to 1000
5 | O=C1NCCCCOCc2cc(ccc2Oc2cccc(F)c2)Nc2nccc(n2)-c2ccc1cc2[N+](=O)[O-] [Example 101, 4^4-(3-fluorophenoxy)-1^2-nitro-6-oxa-3,11-diaza-2(4,2)-pyrimidina-(1,4),4(1,3)-dibenzenacyclododeca-phan-12-one] | > 10000 | 1000 to 10000 | 1000 to 10000 | > 10000
6 | CN1CCN(c2ccc3cc2COCCCCNC(=O)c2ccc(cc2)-c2ccnc(n2)N3)CC1 [Example 7, 4^4-(4-methylpiperazin-1-)-6-oxa-3,11-diaza-2(4,2)-pyrimidina-1(1,4),4(1,3)-dibenzenacyclododecaphan-12-one] | 101 to 1000 | 11 to 100 | 11 to 100 | 101 to 1000
7 | O=C1NCCCCOCc2cc(cc(Cl)c2N2CCOCC2)Nc2nccc(n2)-c2ccc1cc2 [Example 8, 4^5-chloro-4^4-morpholin-6-oxa-3,11-diaza-2(4,2)-pyrimidina-1(1,4),4(1,3)-dibenzenacyclododecaphan-12-one] | 101 to 1000 | 11 to 100 | 11 to 100 | 101 to 1000
8 | N#Cc1cnc2nc1-c1ccc(cc1)C(=O)NCCCCOCc1cc(ccc1N1CCOCC1)N2 [Example 11, 2^5-cyano-4^4-morpholin-6-oxa-3,11-diaza-2(4,2)-pyrimidina-1(1,4),4(1,3)-dibenzenacyclododecaphan-12-one] | 1000 to 10000 | 101 to 1000 | 101 to 1000 | 1000 to 10000
9 | Nc1cc2ccc1-c1ccnc(n1)Nc1ccc(OCC3CC(F)(F)C3)c(c1)COc1ccc(cc1)NC2=O [Example 210, 1^2-amino-4^4-((3,3-difluorocyclobutyl)methoxy)-6-oxa-3,8-diaza-2(4,2)-pyrimidina-1,7(1,4),4(1,3)-tribenz-enacyclononaphane-9-one] | > 10000 | 11 to 100 | > 10000 | > 10000

Other lines, results leading:

Row | IC50 [1] [nM] | IC50 [2] [nM] | IC50 [3] [nM] | IC50 [4] [nM] | SMILES
10 | > 10000 | 1000 to 10000 | 1000 to 10000 | 1000 to 10000 | CC1CCNC(=O)c2ccc(c([N+](=O)[O-])c2)-c2ccnc(n2)Nc2ccc(OCC3COC3)c(c2)COC1 (centres unmarked) [Example 174, 8-methyl-1^2-nitro-4^4-(oxetan-3-yl-methoxy)-6-oxa-3-diaza-2(4,2)-py-rimidina-1(1,4),4(1,3)-dibenzena-cyclododecaphan-12-one]
11 | 1000 to 10000 | 11 to 100 | 1000 to 10000 | 1000 to 10000 | COc1cc(F)cc(Cl)c1COc1ccc2cc1COCCCCNC(=O)c1ccc(c(N)c1)-c1ccnc(n1)N2 [Example 195, 1^2-amino-4^4-((2-chloro-4-fluoro-6-methoxybenzyl)oxy)-6-oxa-3,11-diaza-2(4,2)-pyrimidina-1(1,4),4(1,3)-dibenzenacyclododecaphan-12-one]
12 | > 10000 | 101 to 1000 | 1000 to 10000 | 1000 to 10000 | CC1CCNC(=O)c2ccc(c([N+](=O)[O-])c2)-c2ccnc(n2)Nc2ccc(OCC3CCOC3)c(c2)COC1 (centres unmarked) [Example 135, 8-methyl-1^2-nitro-4^4-((tetrahydro-furan-3-yl)methoxy)-6-oxa-3,11-diaza-2(4,2)-pyrimidina-1(1,4),4(1,3)-dibenzenacyclododecaphan-12-one]
13 | > 10000 | 11 to 100 | 1000 to 10000 | 1000 to 10000 | CC1CCNC(=O)c2ccc(c(N)c2)-c2ccnc(n2)Nc2ccc(OCC3CCC3)c(c2)COC1 (centres unmarked) [Example 142]
14 | 1000 to 10000 | < 10 | 101 to 1000 | 1000 to 10000 | CC1CCNC(=O)c2ccc(c(N)c2)-c2ccnc(n2)Nc2ccc(OC3CCCOC3)c(c2)COC1 (centres unmarked) [Example 138]
15 | > 10000 | < 10 | 101 to 1000 | 1000 to 10000 | Nc1cc2ccc1-c1ccnc(n1)Nc1ccc(OCc3cccc4c3OCC4)c(c1)COCCCCNC2=O [Example 148, 1^2-amino-4^4-((2,3-dihydrobenzofu-ran-7-yl)methoxy)-6-oxa-3,11-dia-za-2(4,2)-pyrimidina-1(1,4),4(1,3)-dibenzenacyclododecaphan-12-one]
16 | 1000 to 10000 | 11 to 100 | 101 to 1000 | 101 to 1000 | Nc1cc2ccc1-c1ccnc(n1)Nc1ccc(OC3CC(F)(F)C3)c(c1)COCCCCNC2=O [Example 98, 1^2-amino-4^4-(3,3-difluorocyclobuto-xy)-6-oxa-3,11-diaza-2(4,2)-pyri-midina-1(1,4),4(1,3)-dibenzenacyclo-dodecaphan-12-one]
17 | 1000 to 10000 | 11 to 100 | 101 to 1000 | 1000 to 10000 | CC1CCOCc2cc(ccc2OCC2CCCC2)Nc2nccc(n2)-c2ccc(cc2N)C(=O)NC1 (centres unmarked) [Example 169, 1^2-amino-4^4-(cyclopentylmethoxy)-9-methyl-6-oxa-3,11-diaza-2(4,2)-pyrimidina-1(1,4),4(1,3)-dibenzena-cyclododecaphan-12-one]

From patent US20230203059A1, “MACROCYCLIC JAK INHIBITOR AND USES THEREOF” (Biopolar Hongye (Guangdong) Pharmaceutical Co. Ltd., priority 2020, published 2023)
